These results are taken from a melting point compilation (Tetko et al.; mined from patent text by program, amines drawn as free bases though some values may be those of a salt).

For the molecule `CCC(=C(c1ccc(I)cc1)c1ccc(OCCCCCl)cc1)c1ccccc1`, the melting point (in general, the temperature of the solid-liquid transition) lay in the range of 85 to 87 °C.

Molecule `CCC1N=C(c2ccccc2Cl)c2cc(CC(=O)OC)sc2NC1=S` (centres undefined) showed a melting point of 199 to 200 °C.

Take `CCCCCCCCCCCCCCCCOCC(CNS(=O)(=O)CCCCl)COC` (centres undefined): the melting point fell in the range of 44 to 46.5 °C.

Take `CNC(=O)C(C)(C)C(O)(Cn1cncn1)c1ccc(Cl)cc1Cl` (centres undefined): the melting point was 145 to 146 °C.

Take `CCOCc1nc2c(N)nc3cc(Br)cnc3c2n1CC(C)C`: the melting point fell in the range of 163 to 164 °C.

As for `CCCc1ccc(Cc2cccc(NC(N)=O)c2)n1CCC`, the melting point lay in the range of 123 to 126 °C.

`Cc1ccc(Cl)cc1-n1c(CF)nc2ccc([N+](=O)[O-])cc2c1=O` registered a melting point of 191 to 192 °C.

`CCN(CC)C1CCN(c2ccc(C(C)=O)cc2)CC1` returned a melting point of 125 to 127 °C.

Molecule `CCOC(=O)c1cn(C)c2cc(-n3cccc3)c(F)cc2c1=O` came in with a melting point of 253 to 254 °C.

`O=C(NCCCc1c[nH]c2ccc(OCc3ccc4ccccc4n3)cc12)OCc1ccccc1` registered a melting point of 109 to 111 °C.

`Cc1c(CCCC(=O)O)cccc1C(=O)c1ccc(Cl)cc1` gave a melting point of 124 °C.

Molecule `Cc1cc(C(O)(C(F)(F)F)C(F)(F)F)cc(C)c1NCCN(C)C` gave a melting point of 112 to 115 °C.

Molecule `NC(=O)c1sc2nccc(N3CCOCC3)c2c1N` had a melting point of 232 to 234 °C.

As for `CN1CCC(C(=NNc2ccccc2)c2ccccc2F)CC1`, the melting point was 131 to 134 °C.

As for `O=C(O)CCC(=NO)c1ccc(-c2ccc(Cl)c(Cl)c2)cc1`, the melting point turned out to be 166 °C.

In the case of `CC1(C)Nc2ccccc2-n2cnc(-c3noc(C4CC4)n3)c21`, the melting point was 166 to 169 °C.

`Cc1c(C(=O)Nc2ccc(N3CCC(N4CCC(O)CC4)CC3)c(C#N)c2)cnn1-c1ccc(Cl)cc1` came in with a melting point of 213 °C.

For `CCOC(=O)CCc1cn(-c2ccc(C(F)(F)F)cc2)nc1OCC`, the melting point fell in the range of 47 to 48 °C.

With `Cc1[nH]c(C(=O)N2CC=CN2)c(C)c1-c1nc2ccc(C(=O)c3ccccc3)cc2[nH]1`, the melting point is 148 to 150 °C.

Consider `O=c1ccnc(NCCCN(Cc2ccccc2Cl)c2ccccn2)[nH]1`, for which the melting point fell in the range of 153 to 154 °C.

In turn, `COc1cccc2c(NCc3ccccc3C)nc(Cl)nc12` came in with a melting point of 279 to 281 °C.

`CCOc1ccc([N+](=O)[O-])c(NC2CCOCC2)c1` showed a melting point of 117 °C.

`CC(C)(C)c1nc(C=C2SC(=S)N(N)C2=O)nc(C(C)(C)C)c1O` returned a melting point of 194 to 196 °C.

The molecule `COc1cccc(C2=Nc3ccc(N4CCOCC4)cc3C(=O)C2)c1OC` gave a melting point of 235 to 236 °C.

`Cn1ncc(N2CCCC2)c(-c2ccccc2C=NO)c1=O` came in with a melting point of 239 °C.

`CC(=O)N1CCN(c2ccc(Nc3nccc(-c4sc(N)nc4C)n3)cc2)CC1` had a melting point of 267 to 269 °C.

On to `CNC(=O)C1(CCCCCCCCO)CC2=C(C1)C(=O)C(OC)=C(OC)C2=O`, for which the melting point was 120 to 123 °C.

In turn, `CCOc1ccc(C2=CC(C)(C)Oc3c(OCC)cc(Cc4cnc(N)nc4N)cc32)cc1` displayed a melting point of 186 to 188 °C.

`Nc1c(-c2ccc(Cl)cc2Cl)nnn1Cc1ccc(O)cc1`: the melting point was 172 to 174 °C.

As to `O=C(O)c1ccc(OC(F)(F)F)cc1Cl`, the melting point fell in the range of 90.6 to 91.2 °C.

`Cc1cc2c(cc1Sc1ccc(C(=O)O)cc1)C(C)(C)CCC2(C)C` yielded a melting point of 253 to 254 °C.

`N#CC(CCSC(F)(F)F)S(=O)CCC(F)(F)C(F)(F)F` (centres undefined) registered a melting point of 41 to 43 °C.

As for `COc1ccc(CN(C)CCc2ccc(NC(=O)c3cccc4c(=O)c5ccccc5n(C)c34)cc2)cc1OC`, the melting point came out at 182 °C.

For the molecule `Clc1ccc(C(Br)Br)c(C(Br)Br)c1`, the melting point was in the range of 108 to 111 °C.

On to `CCOC(=O)c1cnn(-c2ccccc2[N+](=O)[O-])c1C(=O)OCC`, for which the melting point lay within 45 to 46 °C.

`CN(C)CCCCCCOc1ccc(CC(=O)c2ccccc2)cc1`: the melting point was in the range of 53 to 54 °C.

The molecule `COC(=O)c1cc(-n2cnc(Br)c2)c(C(F)(F)F)cc1[N+](=O)[O-]` yielded a melting point of 90 °C.

In the case of `CCOC(=O)[C@H](Cc1ccc(-c2c(OC)cc(COS(C)(=O)=O)cc2OC)cc1)NC(=O)c1c(F)cccc1F`, the melting point lay within 125 to 126 °C.

Molecule `CC(=O)OCC(=O)C1=CCC2C3CCC4=CC(=O)CCC4(C)C3CCC12C` (centres undefined) came in with a melting point of 146 to 148 °C.

For the molecule `CCCC(=O)c1ccc(OCCCC(=O)O)c(Cl)c1Cl`, the melting point was in the range of 111 to 113 °C.

Regarding `CCOC(=O)c1cn(Cc2ccccc2)nc1NC(=O)NC1CCCCC1`, the melting point lay in the range of 94 to 95 °C.

The molecule `CC(=O)c1nc(N)nc(N)c1-c1ccc(Cl)cc1` returned a melting point of 206 to 208 °C.

With `COC(=O)c1nc(-c2ccc(Cl)cc2F)cc(N)c1OC`, the melting point lay within 139 to 144 °C.

In turn, `O=c1ccn([C@H]2C=C[C@@H](O)C2)c(=O)[nH]1` (racemic) displayed a melting point of 163 to 164 °C.

`COc1ccc(Cl)c(C(=O)NCCc2ccc(S(=O)(=O)NC(=O)c3ccc(C(=O)NCCO)nc3)cc2)c1`: the melting point lay in the range of 135 to 137 °C.

Molecule `Cc1noc(NS(=O)(=O)c2cccc3c(NC(C)C)cccc23)c1C` gave a melting point of 156 to 159 °C.

Regarding `CC(C)(C)c1cc(-c2csc(CN3CCOCC3)n2)cc(C(C)(C)C)c1O`, the melting point amounted to 137 °C.

The molecule `N#Cc1c(N2CCN(C(=O)c3cccs3)CC2)c2cccnc2n(Cc2ccc(F)cc2)c1=O` yielded a melting point of 271 °C.

With `Clc1ccc2oc(SCCN3CCC(OC(c4ccccc4)c4ccccc4)CC3)nc2c1`, the melting point was in the range of 98 to 101 °C.

Regarding `c1c(N2CCCC2)nc(NC23CC4CC(CC(C4)C2)C3)nc1N1CCNCC1`, the melting point lay in the range of 160 to 164 °C.

Regarding `O=C(O)CCCCc1nn(-c2ccccc2)c2c1CCC2`, the melting point was 98 to 99 °C.

`O=C1OCCN1CCC1=NCCN1` returned a melting point of 118 to 123 °C.

Turning to `NC(=O)c1cccc2nccc(O)c12`, the melting point lay within 205 to 207 °C.

The molecule `c1ccc(-n2cc3c(n2)-n2cccc2C3(Cc2ccncc2)Cc2ccncc2)cc1` registered a melting point of 169 to 170 °C.

As for `COC(=O)/C=C/c1ccc(NC(=O)CCCBr)nc1`, the melting point lay within 156 to 173 °C.

On to `CC(=O)CC(O)c1ccc([N+](=O)[O-])cc1` (centres undefined), for which the melting point worked out at 62 °C.

With `O=C(O)c1cccc(CCc2n[nH]c3c2c(=O)n(-c2ccccc2)c2ncccc32)c1`, the melting point fell in the range of 159 to 161 °C.

Molecule `CC(C)(OCc1cc2cc(C(F)(F)F)ccc2n1S(=O)(=O)c1ccc2c(c1)OCO2)C(=O)O` yielded a melting point of 130 to 132 °C.

`CC(=O)Nc1ccc(CNc2n[nH]c(N=CN(C)C)c2C#N)cc1`: the melting point lay within 206 to 211 °C.

Molecule `O=c1oc(-c2ccc(Cl)cc2)cc(O)c1SCCc1ccccc1` yielded a melting point of 161 to 163 °C.

The molecule `O=C(O)c1cnc(-c2nnn[nH]2)c2ccccc12` came in with a melting point of 292 °C.

Molecule `Cc1nc(-c2ccccc2)c(-c2ccccc2)nc1N(C)CCCCOCC(=O)OC(C)(C)C` yielded a melting point of 48 to 51 °C.

`Cc1ccccc1NC(=NC#N)NC(NC(=O)Cc1ccc(Cl)cc1)C(C)(C)C` (centres undefined) registered a melting point of 181 to 182 °C.

In turn, `CCOC(=O)C(=O)Nc1cc(C#N)c(C#N)cc1[N+](=O)[O-]` showed a melting point of 140 to 141 °C.

`CC(C)(C)OC(=O)[C@@H](Cc1ccccc1)NC(=O)C1CN(c2ccc(C(N)=S)cc2)C(=O)O1` (some centres undefined) yielded a melting point of 167 to 169 °C.

With `CCN(CC)C(=O)n1cnc(S(=O)(=O)C(F)F)n1`, the melting point was 58 to 59 °C.

As to `CC(=O)Oc1cccc(C(=O)N[C@@H](Cc2ccccc2)[C@H](O)C(=O)O)c1C`, the melting point lay in the range of 189 to 191 °C.

Molecule `CNC(=O)c1cc(F)c(Cl)cc1Oc1cccc(OC)c1C` returned a melting point of 127 to 128 °C.

Regarding `Cc1cc2cc(CN3CCC(CCCC(N)=O)CC3)cnc2cc1NC(=O)c1ccc(-c2ccc(F)cc2)cc1`, the melting point worked out at 228 °C.

For the molecule `O=C(c1ccccc1)N1CC2C(C1)C2N(C(=O)c1ccccc1)c1ncc2cc(-c3ccccc3Cl)c(=O)n(C3CC3)c2n1` (centres undefined), the melting point lay within 124 to 130 °C.

As for `CC1(C)Nc2cc(F)ccc2NC1=O`, the melting point fell in the range of 148 to 149 °C.

`CCOC(=O)CNc1ncccc1[N+](=O)[O-]` showed a melting point of 38 to 39 °C.

As for `Cc1ccc2c(c1)c(=O)c(-c1nnnn1C)cn2C`, the melting point was in the range of 281 to 282 °C.

In turn, `O=[N+]([O-])c1cn2c(n1)O[C@@H](COc1ccc(N3CCC(COc4ccc(C(F)(F)F)cc4)CC3)cc1)C2` came in with a melting point of 175 to 180 °C.

`Cc1cc(C)cc(C(=O)P2(=O)Oc3ccccc3-c3ccccc32)c1` (centres undefined) gave a melting point of 120 to 124 °C.

As for `O=C1NC(=S)SC1=Cc1ccc2c(c1)OCO2`, the melting point was 194 to 195 °C.

For the molecule `OCc1cn(-c2ccc3ncccc3c2)cn1`, the melting point was in the range of 183 to 187 °C.

Molecule `CCOC(=O)C(C)N1C(=O)C(C)Oc2c(N3CCOCC3)nc(C)nc21` (centres undefined) returned a melting point of 80 to 82 °C.

`O=[N+]([O-])C=Cc1ccc(O)c(Br)c1` yielded a melting point of 132 to 134 °C.

Molecule `CC(C)c1cc(S(N)(=O)=O)c(C(C)C)cc1C(F)(F)F` returned a melting point of 171 to 174 °C.

As to `COc1ccc(C(=O)Nc2ccc(F)cc2)cc1N([N+](=O)[O-])S(=O)(=O)c1ccccc1`, the melting point lay in the range of 221 to 240 °C.

Molecule `CCc1nn(-c2ccccn2)c2nc3cc(F)c(F)cc3c(Cl)c12` came in with a melting point of 160 to 161 °C.

Turning to `COc1ccc(COc2cccc(C(C)O)c2OCc2ccc(OC)cc2)cc1` (centres undefined), the melting point is 88 to 89 °C.

`O=C(Nc1cccnn1)N1CCN(c2nccc(-c3cc(F)ccc3F)n2)CC1` came in with a melting point of 271 to 272 °C.

`O=C(NC(=O)N1CCOCC1)c1cccc(-c2noc(-c3ccccc3F)n2)c1`: the melting point was 190 to 194 °C.

As to `COc1c(C)cnc(C#N)c1C`, the melting point lay within 59 to 61 °C.

`Cc1nc(Cl)c([N+](=O)[O-])c(NCCNC(=O)OC(C)(C)C)c1C` gave a melting point of 110 to 112 °C.

In turn, `CCCCCCC(O)CCCCCCCCCCC(N)=O` (centres undefined) gave a melting point of 98 to 99 °C.

`CCOC(=O)C1=C(C)NC(c2ccc(OC)cc2)=C(C(=O)OCC)C1c1cccc([N+](=O)[O-])c1` (centres undefined): the melting point was in the range of 166 to 167 °C.
